Literature values in patent publication US20250213572A1, “TYK2 INHIBITORS AND USES THEREOF” (Takeda Pharmaceutical Company Limited, priority 2022, published 2025).

Assays:
[1] = test system: moderate-to-severe psoriasis; conditions: 30 mg twice-daily; at four weeks; cited from earlier work
[2] = test system: moderate-to-severe ulcerative colitis; conditions: 6 mg once-daily; cited from earlier work
psoriasis = conditions: dose ranges used in the Phase 3 trials; cited from earlier work

For `CCOc1cc([C@@H](CS(C)(=O)=O)N2C(=O)c3cccc(NC(C)=O)c3C2=O)ccc1OC` [Otezla®], the “mean PASI reduction” value [1] is given as 37%.
In the case of deucravacitinib [reference compound], the “primary endpoint of clinical remission at 12 weeks” value [2] is given as “did not achieve its primary endpoint of clinical remission at 12 weeks” and the “increase of responses at 12 weeks compared to four weeks” value (psoriasis) is given as “three- to four-fold”.
For “guselkumab: an anti-IL-23 monoclonal antibody”, the “increase of responses at 12 weeks compared to four weeks” value (psoriasis) is given as “three- to four-fold”.
